Measured values: patent US10835416B2, “Ocular insert apparatus and methods” (ForSight Vision5, Inc., priority 2011, dated 2020)

Key:
[1] = Rate of release of bimatoprost from insert with silicone matrix (FIGS. 26A, 26B); type: physicochemical
Experimental: FIGS. 26A and 26B show rates of release of prostaglandin comprising bimatoprost from an insert comprising a silicone matrix. The estimated rate of release for a matrix having 7% prostaglandin comprising bimatoprost loaded on the insert is above 3.5 ug per day for at least about 90 days. The rate of release of prostaglandin comprising bimatoprost was measured from a matrix comprising medical grade silicone having an approximate durometer of 10 A. The configuration of the insert and matrix is described in Table 3 with reverence to mono v.1 which comprises a 1 mm diameter silicone matrix extending along a 75 degree arc length. The surface area was 47.9 mm^2 and the volume 10.4 mm^3. For the 7% loading the amount of drug loaded on the device was about 700 μg. The rate of release of about 0.9 ug/day for 90 days was measured and the rate of release for 120 days was estimated. The therapeutic agent was released for 70 days above 1 ug per day. Based on Table 3, the matrix can be configured to release additional amounts therapeutic agent. For example, the rate of release can be increased by more than 4× by extending the matrix 360 degrees around the suture.

[2] = Rate of release measured on twin insert placed in solution (FIG. 28); type: physicochemical; details: for rate of release: based on twin measurements
Experimental: The initial studies on the test subject appear to indicate it may be helpful to provide greater amounts of therapeutic agent than would be provided based on eye drop estimates. The TOP was measured and amounts of therapeutic agent estimated. […] The twin insert was placed in a solution when the patient insert was placed in the eye. The measured rate of release of the twin placed in solution was used to determine the rate of release of the insert placed in the eye.

[3] = Estimated amount of bimatoprost released per day from the Experiment 6 test device; type: physicochemical; details: insert with about 2% bimatoprost in silicone matrix
Excerpt: (§1) Test devices comprising a ring shaped retention structure comprising a nylon suture and a support structure 120 having inclined surfaces were placed in an eye of a subject. The support structure comprised a therapeutic agent contained in a silicone matrix. The silicone matrix comprised inclusions of the therapeutic agent as described herein, and the therapeutic agent comprised a prostaglandin. The silicone matrix comprised NuSil Med 4810 and the amount prostaglandin comprised about 2% bimatoprost. The cross-sectional diameter of the support comprising the matrix was about 1 mm and extended about 90 degrees around the ring shaped suture with the suture extending there through. The amount of therapeutic agent within the matrix can be increased with additional studies and embodiments, for example to within a range from about 5-10% prostaglandin such as bimatoprost. […] The ring was inserted in the right eye (OD) and the TOP decreased from about 22 mm Hg to within a range from about 15 to 18 mm Hg to about 28 days post-op. The TOP of the untreated left eye (OS) remained substantially constant and within a range from about 19 mm Hg to about 22 mm Hg. The therapeutic agent comprised a prostaglandin, bimatoprost, and the estimated amount released per day started at approximately 22 ug/day and decreased to approximately 1 ug/day. […]

[4] = Wash time in 70% isopropanol bath and rate of release from silicone matrices (FIG. 27); type: physicochemical; details: silicone ring with 7% bimatoprost; for elution rate: initial
Experimental: The experiments were conducted with silicone rings having 7% prostaglandin comprising bimatoprost and medical grade silicone having a rated durometer of Shore A 10 without drug. The elution rate for the unwashed matrix (“0 wash”) was about 35 ug per day and decreased substantially. […] By day 14 the rate of release was substantially the same for each of the unwashed matrix, the matrix washed for 15 minutes, matrix washed for 60 minutes, and the matrix washed for 180 minutes.

[5] = test system: eye of a test subject; assay: IOP of a test subject wearing successive inserts (FIG. 28); type: in vivo, human
Experimental: The initial studies on the test subject appear to indicate it may be helpful to provide greater amounts of therapeutic agent than would be provided based on eye drop estimates. The TOP was measured and amounts of therapeutic agent estimated. […] The twin insert was placed in a solution when the patient insert was placed in the eye. The measured rate of release of the twin placed in solution was used to determine the rate of release of the insert placed in the eye. The data of this small study indicate that in at least some instances for some patients, the target threshold amount of therapeutic agent released continuously from an insert placed in the eye may be greater than the amount provided to tissue by drops. It was observed that providing amounts of therapeutic agent greater than the estimated amount provided by drops may provide an improved result. It was observed that after about sixty days the TOP had increased to about 19.5 mm Hg was close to the control eye, and the determined rate of release was about 1.2 ug of prostaglandin comprising bimatoprost per day. The insert was replaced with a second insert providing a rate of release of about 1.6 to 2.5 ug per day based on twin measurements, and the TOP decreased to within a range from about 17 to 18 mm Hg. The second insert was replaced with a third insert providing over 3.8 to 4 ug per day based on twin measurements, and the TOP decreased further to within a range from 14.5 to 16 mm Hg.

[6] = test system: eye of a subject; assay: IOP over time in a patient with a bimatoprost-loaded insert on one eye (FIG. 23); type: in vivo, human; details: right eye (OD) with ring insert, silicone matrix (NuSil Med 4810) with about 2% bimatoprost, decreased from about 22 mm Hg, to about 28 days post-op
Excerpt: as §1

[7] = 60 minute wash in 70% isopropanol
[8] = 180 minute wash in 70% isopropanol

With CCNC(=O)CCC/C=C\C[C@@H]1[C@@H](/C=C/[C@@H](O)CCc2ccccc2)[C@H](O)C[C@@H]1O [bimatoprost] the “estimated rate of release” value ([1]; matrix having 7% bimatoprost loaded on an insert, for at least about 120 days) was “above 3 ug per day”, the “estimated rate of release” value ([1]; matrix having 7% bimatoprost loaded on the insert, for at least about 90 days) was “above 3.5 ug per day” and the rate of release ([1]; mono v.1: 1 mm diameter 10 A silicone matrix, 75 degree arc, 7% loading (about 700 μg), measured for 90 days) was “about 0.9 ug/day”. For the same molecule, the “determined rate of release” value ([2]; first insert, after about sixty days, twin insert in solution) was “about 1.2 ug per day”, the rate of release ([2]; second insert) was 1.6 to 2.5 ug per day and the rate of release ([2]; third insert) was 3.8 to 4 ug per day. The “estimated amount released per day, end” value ([3]; decreased to) was “about 1 ug/day”, the “estimated amount released per day, start” value ([3]; started at) was “about 22 ug/day” and the “initial rate of release” value [4, 7] was “about 13 ug per day”. For the same molecule, the “rate of release at 15 days” value [4, 7] was “about 5 ug per day”, the “initial rate of release” value [4, 8] was “about 13 ug per day” and the “rate of release at 15 days” value [4, 8] was “about 5 ug per day”. For the same molecule, the elution rate ([4]; unwashed matrix (0 wash)) was “about 35 ug per day”, the elution rate ([4]; washed for 15 minutes in 70% isopropanol) was “about 17 ug per day” and the TOP ([5]; first insert, after about sixty days, close to the control eye) was “about 19.5 mm Hg”. For the same molecule, the TOP ([5]; second insert) was 17 to 18 mm Hg, the TOP ([5]; third insert) was 14.5 to 16 mm Hg and the TOP [6] was 15 to 18 mm Hg.
